The source of these data is ChEMBL document CHEMBL4007482, “Evaluation of anti-diabetic effect and gall bladder function with 2-thio-5-thiomethyl substituted imidazoles as TGR5 receptor agonists” (Bioorg Med Chem Lett, 2017).

What all share (format): ADME, organism-based
Series [1] in a line: Plasma concentration in C57BL/6J mouse at 50 mg/kg, po after 45 mins by LC-MS/MS analysis.
Series [2] in a line: Half life in C57BL/6J mouse at 5 mg/kg, iv by LC-MS/MS analysis. As to conditions: in vivo.
Series [3] can be described thus: AUClast in C57BL/6J mouse at 5 mg/kg, iv by LC-MS/MS analysis. The conditions noted are these: in vivo. Details: dose 5 mg/kg, route intravenous, time 0 - last.
Series [4] is described as follows: AUC (0 to infinity) in C57BL/6J mouse at 5 mg/kg, iv by LC-MS/MS analysis. Details: dose 5 mg/kg, time infinity, route intravenous. The conditions noted are these: in vivo.
Series [5] can be described thus: Apparent volume of distribution in C57BL/6J mouse at 5 mg/kg, iv by LC-MS/MS analysis. As to conditions: in vivo, read-out: Vz.
Series [6] can be described thus: Volume of distribution at steady state in C57BL/6J mouse at 5 mg/kg, iv by LC-MS/MS analysis. As to conditions: in vivo, read-out: Vdss.
Series [7] in a line: Clearance in C57BL/6J mouse at 5 mg/kg, iv by LC-MS/MS analysis. As to conditions: in vivo.
A short description of series [8]: MRT in C57BL/6J mouse at 5 mg/kg, iv by LC-MS/MS analysis. As to conditions: in vivo.
Series [9] is described as follows: Half life in C57BL/6J mouse at 20 mg/kg, po via gavage by LC-MS/MS analysis. The conditions noted are these: in vivo.
Series [10] is described as follows: Tmax in C57BL/6J mouse at 20 mg/kg, po via gavage by LC-MS/MS analysis. As to conditions: in vivo.
Series [11] can be described thus: Cmax in C57BL/6J mouse at 20 mg/kg, po via gavage by LC-MS/MS analysis. Details: dose 20 mg/kg, route oral. As to conditions: in vivo.
A short description of series [12]: AUClast in C57BL/6J mouse at 20 mg/kg, po via gavage by LC-MS/MS analysis. More on the design: dose 20 mg/kg, time 0 - last, route oral. As to conditions: in vivo.
Series [13] is described as follows: AUC (0 to infinity) in C57BL/6J mouse at 20 mg/kg, po via gavage by LC-MS/MS analysis. More on the design: dose 20 mg/kg, route oral, time infinity. As to conditions: in vivo.
Series [14] in a line: MRT in C57BL/6J mouse at 20 mg/kg, po via gavage by LC-MS/MS analysis. As to conditions: in vivo.
The nature of series [15]: Oral bioavailability in C57BL/6J mouse at 20 mg/kg via gavage by LC-MS/MS analysis. As to conditions: in vivo.
The nature of series [16]: Plasma concentration in CD-1 mouse at 50 mg/kg, po after 1.25 hrs.
Series [17] in a line: Plasma concentration in fasted C57BL/6J mouse at 50 mg/kg, po after 45 mins.
The nature of series [18]: Plasma concentration in fasted C57BL/6J mouse at 30 mg/kg, sc after 45 mins.

The term half-life denotes how long it takes for the measured level to halve. The low end stands for rapid decline, the high end for slow decline. Usually AUC(0-t) stands for the area under the concentration-time curve up to a stated or last time point. Low values mean low exposure, high ones high exposure. By AUC(0-inf) is commonly meant the area under the concentration-time curve extrapolated to infinity. Usually clearance stands for a measure of how efficiently the substance is removed, as volume per time. High values mean a high capacity for elimination, low ones a low capacity for elimination. As a reminder, the MRT is a mean duration of stay, worked out from the concentration-time curve. The term Tmax denotes the time at which the peak concentration occurs. The Cmax is the peak of the concentration-time curve. The bioavailability is the share of a dose that reaches the circulation, judged against a reference dose that is usually intravenous. Low values mean poor availability, high ones good availability. In the case of `COc1ccc(SCc2cnc(SCc3c(F)cc(-c4nn[nH]n4)cc3F)n2-c2ccc(F)cc2)cc1OC`, the results for the concentration at 0.75 h in series [1], in series [17] and in series [18] were 1180 nM, 1030 nM and 15800 nM, respectively. Also, the half-life was 26.7 min in series [2] and 164 min in [9]. In addition, the AUC(0-t) in [3] was 379 ng·h/mL; in series [12], 98.4 ng·h/mL. The AUC(0-inf) turned out to be 390 ng·h/mL in series [4] and 148 ng·h/mL in series [13]. Also, the Vd in series [5] amounted to 8.24 L/kg; in series [6], 4.44 L/kg. In addition, in [7], the clearance came to 214 mL/min/kg. Also, the values for the MRT in series [8] and in series [14] were 17 min and 82.2 min, respectively. The Tmax in series [10] turned out to be 30 min. For the same molecule, in [11], the peak concentration (Cmax) stood at 68.1 ng/mL. The same molecule gave a bioavailability in [15] of 6.48%. In series [16], this molecule had a concentration at 1.25 h of 20 nM.
